Our source for the IC50 and melting point values is patent US6410792B1, “Amide derivatives and methods for using the same as selective neuropeptide Y receptor antagonists” (Bayer Corporation, priority 1997, dated 2002).

In one data set the target is T1, Human NPY1 receptor (Homo sapiens, UniProt P25929).
T1 construct: host or cells: SK-N-MC cells
T1 sequence (P25929 1-384): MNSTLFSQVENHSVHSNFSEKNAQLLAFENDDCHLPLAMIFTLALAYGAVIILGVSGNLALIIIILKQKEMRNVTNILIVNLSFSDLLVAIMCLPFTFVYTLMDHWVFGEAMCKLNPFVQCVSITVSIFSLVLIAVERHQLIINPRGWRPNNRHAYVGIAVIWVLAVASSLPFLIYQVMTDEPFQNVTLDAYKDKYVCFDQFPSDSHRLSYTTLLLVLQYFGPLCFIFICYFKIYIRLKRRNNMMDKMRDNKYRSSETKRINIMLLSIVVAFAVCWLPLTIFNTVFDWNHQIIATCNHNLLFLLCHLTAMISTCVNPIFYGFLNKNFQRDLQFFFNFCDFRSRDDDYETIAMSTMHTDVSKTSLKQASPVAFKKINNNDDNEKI
Kind of data set: Human NPY1 receptor binding assay ([125I]PYY, SK-N-MC cells). The settings on record: [125I]PYY, SK-N-MC cells; read-out: hNPYI IC50. The procedure, abridged: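 Whole-cell competition with ~50 pM [125I]PYY on SK-N-MC monolayers, 3 h at room temperature after 30 min preincubation in HEPES-buffered (pH 7.3) serum-free DMEM containing protease inhibitors. Gamma counting of cell lysates; 1 μM NPY gave nonspecific binding.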

The next data set addresses T2, Y2 receptor (Homo sapiens, UniProt P49146).
T2 sequence (P49146 1-381): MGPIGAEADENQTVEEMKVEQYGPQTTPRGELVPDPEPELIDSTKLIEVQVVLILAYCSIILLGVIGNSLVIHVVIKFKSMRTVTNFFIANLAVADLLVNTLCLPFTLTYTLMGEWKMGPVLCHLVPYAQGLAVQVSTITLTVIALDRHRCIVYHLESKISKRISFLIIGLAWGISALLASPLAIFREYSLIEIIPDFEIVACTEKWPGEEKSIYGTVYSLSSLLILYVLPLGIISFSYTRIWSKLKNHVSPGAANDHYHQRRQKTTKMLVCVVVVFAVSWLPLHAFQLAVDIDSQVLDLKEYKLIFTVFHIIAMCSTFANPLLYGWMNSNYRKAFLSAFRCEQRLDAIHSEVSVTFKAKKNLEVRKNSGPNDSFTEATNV
As to the kind of experiment: Y2 receptor binding assay ([125I]PYY, membrane protein). To be noted: [125I]PYY, membrane protein; read-out: hNPY2 IC50. The procedure, abridged: (§1)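 Filtration binding with membrane protein and drug dilution, 2 h at room temperature with mixing, radioactivity counted by gamma or scintillation. Y2: 25 pM [125I]PYY in Krebs-Ringer bicarbonate pH 7.4 with 0.01% BSA, nonspecific by 1 μM NPY. Y4/PP1: 50 pM [125I]hPP in HEPES-buffered saline pH 7.4 with protease inhibitors and 0.3% BSA, nonspecific by 1 μM hPP.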

For the next data set, the target named is human Y4/PP1 receptor (Homo sapiens, UniProt P50391). As to the kind of experiment: Human Y4/PP1 receptor binding assay ([125I]human PP, membrane protein). The settings on record: [125I]human PP, membrane protein; read-out: hNPY4 IC50. The procedure, abridged: as §1
The target of the next data set is T3, Human NPY5 receptor (Homo sapiens, UniProt Q15761).
T3 sequence (Q15761 1-445): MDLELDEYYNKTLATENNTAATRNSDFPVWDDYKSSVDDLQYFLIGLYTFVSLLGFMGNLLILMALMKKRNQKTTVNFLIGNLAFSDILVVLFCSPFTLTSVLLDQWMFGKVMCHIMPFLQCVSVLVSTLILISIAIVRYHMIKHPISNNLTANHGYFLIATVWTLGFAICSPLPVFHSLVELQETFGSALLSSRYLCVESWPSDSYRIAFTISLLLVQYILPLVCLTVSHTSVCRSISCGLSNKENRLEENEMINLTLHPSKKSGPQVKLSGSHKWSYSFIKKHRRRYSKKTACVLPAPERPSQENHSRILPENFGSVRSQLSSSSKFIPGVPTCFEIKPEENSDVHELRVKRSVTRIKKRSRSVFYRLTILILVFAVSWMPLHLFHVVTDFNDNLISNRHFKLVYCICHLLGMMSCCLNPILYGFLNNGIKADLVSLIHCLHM
Kind of data set: Human NPY5 receptor binding assay ([125I]PYY, membrane protein). To be noted: [125I]PYY, read-out: hNPY5 IC50. Put shortly: (§2)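 Radioligand displacement: 75-100 pM [125I]PYY (porcine), membranes, drug dilution; 2 h, RT, mixing; 25 mM Tris pH 7.4 with 0.1% BSA, 0.5 mg/ml bacitracin. NSB 1 μM PYY. Filtration on PEI-treated GF/C, ice-cold buffer wash, gamma or scintillation counting.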

The next data set concerns the target T4, Rat NPY5 receptor (Rattus norvegicus, UniProt Q63634).
T4 sequence (Q63634 1-445): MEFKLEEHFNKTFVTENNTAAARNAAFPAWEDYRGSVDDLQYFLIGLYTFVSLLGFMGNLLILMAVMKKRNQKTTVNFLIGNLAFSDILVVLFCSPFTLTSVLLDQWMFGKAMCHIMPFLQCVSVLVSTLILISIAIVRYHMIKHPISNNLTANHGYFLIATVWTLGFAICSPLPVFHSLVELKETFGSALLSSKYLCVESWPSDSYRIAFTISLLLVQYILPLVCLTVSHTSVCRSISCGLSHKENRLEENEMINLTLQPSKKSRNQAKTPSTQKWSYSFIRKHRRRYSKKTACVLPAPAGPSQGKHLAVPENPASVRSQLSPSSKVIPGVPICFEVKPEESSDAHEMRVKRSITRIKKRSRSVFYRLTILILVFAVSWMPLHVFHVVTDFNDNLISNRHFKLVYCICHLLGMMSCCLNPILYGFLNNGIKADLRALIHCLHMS
Kind of data set: Rat NPY5 receptor binding assay ([125I]PYY, membrane protein). The settings on record: [125I]PYY, read-out: rNPY5 IC50. The procedure, abridged:
as §2

The term IC50 denotes the point on the concentration scale where inhibition reaches its midpoint. Broadly, the melting point is the temperature, or range, at which the solid turns liquid.

Sequence of human Y4/PP1 receptor (P50391 whole entry): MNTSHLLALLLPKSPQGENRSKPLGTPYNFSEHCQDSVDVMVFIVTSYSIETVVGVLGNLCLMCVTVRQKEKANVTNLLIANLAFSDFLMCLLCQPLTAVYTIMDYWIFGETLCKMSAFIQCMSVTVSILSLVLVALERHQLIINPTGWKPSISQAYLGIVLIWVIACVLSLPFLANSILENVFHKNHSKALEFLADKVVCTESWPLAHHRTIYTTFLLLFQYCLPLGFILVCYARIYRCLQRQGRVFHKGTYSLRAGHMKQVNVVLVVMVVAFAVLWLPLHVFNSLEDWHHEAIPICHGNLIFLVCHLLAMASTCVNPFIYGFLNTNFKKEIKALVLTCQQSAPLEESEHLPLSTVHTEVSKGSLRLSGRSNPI

Regarding `COCCNC(=O)CN1CCC(n2c(=O)[nH]c3ccccc32)CC1` [Compound 284, N-(2-Methoxy-ethyl)-2-[4-(2-oxo-2,3-dihydro-benzoimidazol-1-yl)-piperidin-1-yl]-acetamide], the melting point lay in the range of 77 to 78 °C. The IC50 at Human NPY1 receptor is greater than 5 µM. Also, the 50% inhibitory concentration (IC50) on Y2 receptor is greater than 5 µM. The concentration for half-maximal inhibition (IC50) on human Y4/PP1 receptor is greater than 5 µM. The IC50 on Human NPY5 receptor is greater than 10 µM. At Rat NPY5 receptor, the IC50 was greater than 10 µM.

On to `CC(C)N(CCNC(=O)CN1CCC(n2c(=O)[nH]c3ccccc32)CC1)C(C)C` [Compound 281, N-(2-Diisopropylamino-ethyl)-2-[4-(2-oxo-2,3-dihydro-benzoimidazol-1-yl)-piperidin-1-yl]-acetamide], for which the melting point was in the range of 195 to 196 °C. The IC50 at Human NPY1 receptor was greater than 5 µM. The 50% inhibitory concentration (IC50) on Y2 receptor is greater than 5 µM. Also, the IC50 at human Y4/PP1 receptor was greater than 5 µM. For the same molecule, the IC50 at Human NPY5 receptor was greater than 10 µM. Moreover, the IC50 on Rat NPY5 receptor was greater than 10 µM.

In turn, `CC(=O)NC1CCN(CC(=O)Nc2ccc(C3CCCCC3)cc2)C1.O=C(O)C(=O)O` (stereo not shown) [Compound 293, 2-(3-Acetylamino-pyrrolidin-1-yl)-N-(4-cyclohexyl-phenyl)-acetamide; compound with oxalic acid] returned a melting point of 122 °C. The 50% inhibitory concentration (IC50) on Human NPY1 receptor was greater than 5 µM. In addition, the 50% inhibitory concentration (IC50) at Y2 receptor is greater than 5 µM. Also, the half-inhibitory concentration (IC50) on human Y4/PP1 receptor was greater than 5 µM. At Human NPY5 receptor, the IC50 was 0.19 µM. Also, the 50% inhibitory concentration (IC50) at Rat NPY5 receptor turned out to be 0.17 µM.

`Cl.O=C(CN1CCC(C(=O)c2ccc(F)cc2)CC1)Nc1ccc(C2CCCCC2)cc1` [Compound 292, N-(4-Cyclohexyl-phenyl)-2-[4-(4-fluoro-benzoyl)-piperidin-1-yl]-acetamide; hydrochloride] gave a melting point of 258 °C. Moreover, the IC50 on Y2 receptor was greater than 5 µM. For the same molecule, the IC50 at human Y4/PP1 receptor is greater than 5 µM. In addition, the IC50 on Human NPY5 receptor was 0.11 µM. In addition, the half-maximal inhibitory concentration (IC50) at Rat NPY5 receptor was 0.084 µM.

Take `O=C(CN1CCC(NC(=O)Nc2ccccc2)CC1)Nc1ccc(C2CCCCC2)cc1` [Compound 274, N-(4-Cyclohexyl-phenyl)-2-[4-(3-phenyl-ureido)-piperidin-1-yl]-acetamide]: the melting point was in the range of 222 to 223 °C. For the same molecule, on Human NPY1 receptor, the half-maximal inhibitory concentration (IC50) is greater than 5 µM. The IC50 on human Y4/PP1 receptor is greater than 5 µM. Besides, the half-inhibitory concentration (IC50) on Human NPY5 receptor is 4.8 µM. The IC50 on Rat NPY5 receptor was found to be 1.5 µM.

Turning to `O=C(CN1CCC(n2c(=O)[nH]c3ccccc32)CC1)Nc1ccc(Cc2ccccc2)cc1` [Compound 258, N-(4-Benzyl-phenyl)-2-[4-(2-oxo-2,3-dihydro-benzoimidazol-1-yl)-piperidin-1-yl]-acetamide], the melting point was in the range of 182 to 183 °C. Moreover, the IC50 on Human NPY1 receptor is greater than 5 µM. On Y2 receptor, the concentration for half-maximal inhibition (IC50) was greater than 5 µM. Further, the half-maximal inhibitory concentration (IC50) at human Y4/PP1 receptor is greater than 5 µM. In addition, the IC50 on Human NPY5 receptor was determined as 0.1 µM.

In turn, `O=C(CN1CCC(n2c(=O)[nH]c3ccccc32)CC1)Nc1ccc(C=Cc2ccccc2)cc1` [Compound 262, 2-[4-(2-Oxo-2,3-dihydro-benzoimidazol-1-yl)-piperidin-1-yl]-N-(4-styryl-phenyl)-acetamide] had a melting point of 234 to 235 °C. On Human NPY1 receptor, the IC50 is greater than 5 µM. Further, the IC50 on Y2 receptor was greater than 5 µM. Moreover, the half-inhibitory concentration (IC50) on human Y4/PP1 receptor is greater than 5 µM. Also, the IC50 on Human NPY5 receptor came out at 0.79 µM.

For `Cl.O=C(CN1CCC(n2c(=O)[nH]c3ccccc32)CC1)NCC1CCCCC1` [Compound 282, N-Cyclohexylmethyl-2-[4-(2-oxo-2,3-dihydro-benzoimidazol-1-yl)-piperidin-1-yl]-acetamide; hydrochloride], the melting point was in the range of 196 to 197 °C. In addition, the half-inhibitory concentration (IC50) at Human NPY1 receptor is greater than 5 µM. Moreover, the concentration for half-maximal inhibition (IC50) on Y2 receptor was greater than 5 µM. Further, the IC50 on human Y4/PP1 receptor was greater than 5 µM. Besides, the IC50 at Human NPY5 receptor was 0.38 µM. For the same molecule, the half-inhibitory concentration (IC50) on Rat NPY5 receptor was found to be 0.313 µM.

Molecule `O=C(CN1CCC2(CC1)C(=O)NCN2c1ccccc1)Nc1ccc(C2CCCCC2)cc1` [Compound 269, N-(4-Cyclohexyl-phenyl)-2-(4-oxo-1-phenyl-1,3,8-triaza-spiro[4.5]dec-8-yl)-acetamide] showed a melting point of 117 to 118 °C. The half-maximal inhibitory concentration (IC50) on Human NPY1 receptor was greater than 5 µM. The half-inhibitory concentration (IC50) on Y2 receptor is greater than 5 µM. The IC50 on human Y4/PP1 receptor was greater than 5 µM. Also, the IC50 on Human NPY5 receptor amounted to 0.79 µM.

The molecule `O=C(CN1CCC(n2c(=O)[nH]c3ccccc32)CC1)Nc1cccc(C(=O)c2ccccc2)c1` [Compound 268, N-(3-Benzoyl-phenyl)-2-[4-(2-oxo-2,3-dihydro-benzoimidazol-1-yl)-piperidin-1-yl]-acetamide] registered a melting point of 134 to 135 °C. The half-maximal inhibitory concentration (IC50) at Human NPY1 receptor was greater than 5 µM. Besides, the IC50 on Y2 receptor was greater than 5 µM. Further, the IC50 on human Y4/PP1 receptor was greater than 5 µM. Moreover, the IC50 on Human NPY5 receptor stood at 0.13 µM. In addition, at Rat NPY5 receptor, the 50% inhibitory concentration (IC50) was 0.12 µM.

Turning to `CCOC(=O)Cc1ccc(NC(=O)CN2CCC(n3c(=O)[nH]c4ccccc43)CC2)cc1` [Compound 261, (4-{2 [4-(2-Oxo-2,3-dihydro-benzoimidazol-1-yl)-piperidin-1-yl]-acetylamino}-phenyl)-acetic acid ethyl ester], the melting point fell in the range of 164 to 165 °C. Further, the half-maximal inhibitory concentration (IC50) on Human NPY1 receptor was greater than 5 µM. For the same molecule, at Y2 receptor, the IC50 is greater than 5 µM. Also, the half-inhibitory concentration (IC50) at human Y4/PP1 receptor is greater than 5 µM. In addition, the concentration for half-maximal inhibition (IC50) at Human NPY5 receptor stood at 0.59 µM.

`O=C(CNC(c1ccccc1)c1ccccc1)Nc1ccc(C2CCCCC2)cc1` [Compound 273, 2-(Benzhydryl-amino)-N-(4-cyclohexyl-phenyl)-acetamide] returned a melting point of 132 to 133 °C. In addition, the half-maximal inhibitory concentration (IC50) at Human NPY1 receptor is greater than 5 µM. The 50% inhibitory concentration (IC50) on human Y4/PP1 receptor is greater than 5 µM. Further, the IC50 at Human NPY5 receptor was 7 µM. Also, the IC50 at Rat NPY5 receptor turned out to be 6.5 µM.

With `CC(C)OC(=O)c1ccc(NC(=O)CN2CCC(n3c(=O)[nH]c4ccccc43)CC2)cc1` [Compound 260], the melting point was in the range of 168 to 177 °C. Further, the concentration for half-maximal inhibition (IC50) on Human NPY1 receptor is greater than 5 µM. In addition, the concentration for half-maximal inhibition (IC50) on Y2 receptor was greater than 5 µM. For the same molecule, the concentration for half-maximal inhibition (IC50) at human Y4/PP1 receptor was greater than 5 µM. Also, the concentration for half-maximal inhibition (IC50) at Human NPY5 receptor was 0.014 µM.

Regarding `Cl.O=C(CN1CCC(n2c(=O)[nH]c3ccccc32)CC1)Nc1cccc2c1C(=O)c1ccccc1-2` [Compound 307, 2-[4-(2-Oxo-2,3-dihydro-benzoimidazol-1-yl)-piperidin-1-yl]-N-(9-oxo-9H-fluoren-1-yl)-acetamide; hydrochloride], the melting point is 204 °C. The IC50 at Y2 receptor is greater than 5 µM. In addition, at human Y4/PP1 receptor, the half-maximal inhibitory concentration (IC50) is greater than 5 µM.
